Assay results taken from patent US20180055887A1, “METHOD FOR PREPARING INDUCED MESENCHYMAL STEM CELLS AND IMPROVING MESENCHYMAL STEM CELL'S CHARACTERS AND ITS APPLICATIONS” (ACADEMIA SINICA, priority 2016, published 2018).
Marks after values point to notes of the source that are not given here.

Key:
[1] = system: Human primary neonatal foreskin fibroblasts (CRL2097); experiment: Generation of iMSCs from fibroblasts by chemical treatment, flow cytometry for SSEA-4 and PODXL; assay type: cell-based; settings: for Percentage of cells with both SSEA-4 and PODXL: CRL2097 fibroblasts, DMEM only 0.1%; for iMSC generation from fibroblasts (in words): SSEA-4+PODXL+ population by flow cytometry, without growth factors
Protocol: For iMSC dedifferentiation from human fibroblasts, primary fibroblasts were cultured in DMEM-HG for 2 days. The culture medium was then replaced with medium containing different chemical(s), with or without growth factor(s), for 3 to 21 days (FIG. 1A). Cells were cultured at 37° C. under 5% CO2.
Cells were then analyzed by FACSCanto (Becton Dickinson, Franklin Lakes, N.J., USA). SSEA-4 and PODXL double positive cells were isolated using a cell sorter (FACS Aria II, BD Biosciences).
After culture, the cells treated by the chemical cocktail were examined by flow cytometry.
Human primary neonatal foreskin fibroblasts (CRL2097) were cultured in DMEM medium only (as a negative control) or in DMEM medium containing a GSK3β inhibitor (CHIR99021, 3 μM) or a protein kinase C inhibitor (Go6983, 5 μM), and the percentage of the cells converted to iMSCs, co-expressing SSEA-4 and PODXL, were determined by flow cytometer.
Additional combinations of chemicals were analyzed for their activities to generate iMSCs from fibroblasts and the percentage of the cells converted to iMSCs, co-expressing SSEA-4 and PODXL, were determined by flow cytometer.

BMMSCs = experiment: Improvement of multipotency of MSCs: percentage of MSC markers SSEA-4 and PODXL by flow cytometer; assay type: cell-based, human; settings: treatment of BMMSCs
Protocol: For cell surface marker analysis, BMMSCs, iMSCs, and fibroblasts were incubated with FITC-conjugated anti-human SSEA-4 (clone MC-813-70; eBiosciences, San Diego, Calif., USA) and PE-conjugated anti-human PODXL (clone B34D1.3; eBiosciences) antibodies. Cells were then analyzed by FACSCanto (Becton Dickinson, Franklin Lakes, N.J., USA). SSEA-4 and PODXL double positive cells were isolated using a cell sorter (FACS Aria II, BD Biosciences).
BBMSCs were cultured in conversion medium for 6 days, without chemical treatment (control) or with treatment of chemical cocktails (6C+3GF), including six chemical kinase(6C) inhibitors i.e. a p38 inhibitor (5B202190), a JNK inhibitor (SP600125), a protein kinase C inhibitor (Go6983), a ROCK inhibitor (Y-27632), a ERK1/2 inhibitor (PD0325901) and a GSK3β inhibitor (CHIR99021) and three growth factors i.e. a leukemia inhibitory factor (LIF), a basic fibroblast growth factor (bFGF) and a transforming growth factor-β (TGF-β). In other conditions, MSCs were cultured with chemicals cocktails (six, seven or eight chemicals) without the growth factors. The percentages of the MSC markers, SSEA-4 and PODXL, were determined by flow cytometer. Six chemicals (6C) includes a p38 inhibitor (SB202190), a JNK inhibitor (SP600125), a protein kinase C inhibitor (Go6983), a ROCK inhibitor (Y-27632), a ERK1/2 inhibitor (PD0325901) and a GSK3β inhibitor (CHIR99021). […]

[2] = Table 2: other factors or a combination, tested in the same manner

## CCCC(=O)[O-].[Na+] [Sodium butyrate]
[1]; [2]
  Percentage of cells with both SSEA-4 and PODXL: 0.70%

## Cc1cccc(-c2n[nH]cc2-c2ccc3ncccc3n2)n1 [Repsox, 2-[3-(6-Methyl-2-pyridinyl)-1H-pyrazol-4-yl]-1,5-naphthyridine]
[1]; [2]
  Percentage of cells with both SSEA-4 and PODXL: 0.40%

## COc1ccc2c(c1)c(C1=C(c3c[nH]c4ccccc34)C(=O)NC1=O)cn2CCCN(C)C [Go6983, 3-{1-[3-(Dimethylamino)propyl]-5-methoxy-1H-indol-3-yl}-4-(1H-indol-3-yl)-1H-pyrrole-2,5-dione]
[1]
  iMSC generation from fibroblasts (in words): effective in iMSC generation
BMMSCs
  expression of functional markers of BMSCs (in words): can effectively increase the expression of functional markers

## O=C(NCc1ccccc1)c1csc(Nc2ccncn2)n1 [Thiazovivin]
[1]; [2]
  Percentage of cells with both SSEA-4 and PODXL: 0.80%
[1]; Table 2: other factors or a combination, tested in the same manner, listed as thiazovivin
  Percentage of cells with both SSEA-4 and PODXL: 0.8%

## O=C(NOC[C@@H](O)CO)c1ccc(F)c(F)c1Nc1ccc(I)cc1F [PD0325901, N-[(2S)-2,3-Dihydroxypropoxy]-3,4-difluoro-2-[(2-fluoro-4-iodophenyl)amino]benzamide]
[1]; [2]
  Percentage of cells with both SSEA-4 and PODXL: 0.40%

## C[C@@H](N)[C@H]1CC[C@H](C(=O)Nc2ccncc2)CC1 [Y27632]
[1]; [2]
  Percentage of cells with both SSEA-4 and PODXL: 0.50%

## O=C1O[C@H]([C@@H](O)CO)C(O)=C1O [VitC, ascorbic acid]
[1]; [2]
  Percentage of cells with both SSEA-4 and PODXL: 0.60%

## CCCC(CCC)C(=O)O [VPA, 2-Propylpentanoic acid]
[1]; [2]
  Percentage of cells with both SSEA-4 and PODXL: 0.2%

## O=C1c2ccccc2-c2n[nH]c3cccc1c23 [SP600125]
[1]; [2]
  Percentage of cells with both SSEA-4 and PODXL: 0.20%

## Cc1nc(Nc2ncc(C(=O)Nc3c(C)cccc3Cl)s2)cc(N2CCN(CCO)CC2)n1 [Dasatinib]
[1]; [2]
  Percentage of cells with both SSEA-4 and PODXL: 0.40%

## Oc1ccc(-c2nc(-c3ccncc3)c(-c3ccc(F)cc3)[nH]2)cc1 [SB202190]
[1]; [2]
  Percentage of cells with both SSEA-4 and PODXL: 0.10%

## COc1ccc(C2CNC(=O)C2)cc1OC1CCCC1 (stereo not shown) [Rolipram]
[1]; [2]
  Percentage of cells with both SSEA-4 and PODXL: 0.30%

## c1cc(-c2cnn3cc(-c4ccc(OCCN5CCCCC5)cc4)cnc23)ccn1 [Dorsomorphin, 6-[4-(2-Piperidin-1-yl-ethoxy)-phenyl]-3-pyridin-4-yl-pyrrazolo[1,5,-α]pyrimidine]
[1]; [2]
  Percentage of cells with both SSEA-4 and PODXL: 0.10%
[1]; Table 2: other factors or a combination, tested in the same manner, listed as dorsomorphin
  Percentage of cells with both SSEA-4 and PODXL: 0.1%

## CC(C)N(CCCNC(=O)Nc1ccc(C(C)(C)C)cc1)C[C@H]1O[C@@H](n2cc(Br)c3c(N)ncnc32)[C@H](O)[C@@H]1O [SGC0946, 5-Bromo-7-(5-deoxy-5-{isopropyl[3-({[4-(2-methyl-2-propanyl)phenyl]carbamoyl}amino)propyl]amino}-β-D-ribofuranosyl)-7H-pyrrolo[2,3-d]pyrimidin-4-amine]
[1]; [2]
  Percentage of cells with both SSEA-4 and PODXL: 0.20%

## COc1cc2nc(N3CCCN(C)CC3)nc(NC3CCN(Cc4ccccc4)CC3)c2cc1OC [BIX01294]
[1]; [2]
  Percentage of cells with both SSEA-4 and PODXL: 0.30%

## NC(=O)c1ccc(-c2nc(-c3ccc4c(c3)OCO4)c(-c3ccccn3)[nH]2)cc1 [SB431542]
[1]; [2]
  Percentage of cells with both SSEA-4 and PODXL: 0.40%

## CC(=O)N[C@@H](CS)C(=O)O [NAC, N-Acetylcysteine]
[1]; [2]
  Percentage of cells with both SSEA-4 and PODXL: 0.50%

## N[C@@H](CCC(=O)N[C@@H](CS)C(=O)NCC(=O)O)C(=O)O [GSH, Glutathione]
[1]; [2]
  Percentage of cells with both SSEA-4 and PODXL: 0.40%

## CO[C@H]1C[C@@H]2CC[C@@H](C)[C@@](O)(O2)C(=O)C(=O)N2CCCC[C@H]2C(=O)O[C@H]([C@H](C)C[C@@H]2CC[C@@H](O)[C@H](OC)C2)CC(=O)[C@H](C)/C=C(\C)[C@@H](O)[C@@H](OC)C(=O)[C@H](C)C[C@H](C)/C=C/C=C/C=C/1C [Rapamycin, (1R,9S,12S,15R,16E,18R,19R,21R,23S,24E,26E,28E,30S,32S,35R)-1,18-Dihydroxy-12-{(2R)-1-[(1S,3R,4R)-4-hydroxy-3-methoxycyclohexyl]-2-propanyl}-19,30-dimethoxy-15,17,21,23,29,35-hexamethyl-11,36-dioxa-4-azatricyclo[30.3.1.0~4,9~]hexatriaconta-16,24,26,28-tetraene-2,3,10,14,20-pentone]
[1]; [2]
  Percentage of cells with both SSEA-4 and PODXL: 0.20%

## O=S(=O)(c1cccc2cnccc12)N1CCCNCC1 [Fasudil]
[1]; [2]
  Percentage of cells with both SSEA-4 and PODXL: 0.20%

## O=c1cc(N2CCOCC2)oc2c(-c3ccccc3)cccc12 [LY294002]
[1]; [2]
  Percentage of cells with both SSEA-4 and PODXL: 0.80%

## C[S+]([O-])c1ccc(-c2nc(-c3ccc(F)cc3)c(-c3ccncc3)[nH]2)cc1 (stereo not shown) [SB203580]
[1]; [2]
  Percentage of cells with both SSEA-4 and PODXL: 0.10%

## Cc1cnc(-c2cnc(NCCNc3ccc(C#N)cn3)nc2-c2ccc(Cl)cc2Cl)[nH]1 [CHIR99021, 6-[(2-{[4-(2,4-Dichlorophenyl)-5-(5-methyl-1H-imidazol-2-yl)-2-pyrimidinyl]amino}ethyl)amino]nicotinonitrile]
[1]
  iMSC generation from fibroblasts (in words): effective in iMSC generation
[1]; Table 1: single factor in DMEM medium, CHIR99021 3 μM, Go6983 5 μM
  Percentage of cells with both SSEA-4 and PODXL: 0.9%
[1]; Table 1: single factor in DMEM medium, CHIR99021 3 μM, Go6983 5 μM, listed as CHIR99201
  Percentage of cells with both SSEA-4 and PODXL: 0.90%*
